Assay results published in patent publication US20040254247A1, “Method and composition for treatnment of ocular hypertension and glaucoma” (priority 2001, published 2004).
Like-named read-outs stand apart in the source and are kept apart here.

How the values were obtained:
eye of Dutch rabbits = assay: 13-week repeated ocular administration, irritable response in cornea, conjunctiva or iris; format: in vivo
Method: The administration was performed 4 times a day with 2-hour intervals for 13 weeks. The cornea, conjunctiva and iris were observed about occurrence of irritable response before, and 4, 8, and 13 weeks after the initiation of the administration. The observation was performed within the time from 0.5 hour to 2 hours after the last administration of the day. The cornea was observed about a presence of opacity and its area in the cornea. The conjunctiva was observed about occurrence of hyperemia, redness and swelling. The iris was observed about occurrence of hyperemia, congestion, swelling and hemorrhage. The ratio of cases showing irritable response in the cornea, conjunctiva or iris was evaluated by percent in the group.

[1] = system: eye of healthy volunteers; assay: Intraocular pressure lowering effect in healthy volunteers (applanation tonometer); format: in vivo, human; conditions: for Intraocular pressure lowering effect (difference in IOP between test eye and control eye): 12 μg/eye; for lowered the IOP by, as compared with the control eye: 12 μg
Method: The vehicle solution was ocularly administered to the contralateral eye (control eye). Intraocular pressure (IOP) was measured by means of an applanation tonometer before, and 4, 6, and 12 hours after the administration. The IOP lowering effect of the test compound was evaluated based on difference in IOP between test eye and the control eye at each time point of IOP measurement.

monkey eyes [2] = assay: Effects on IOP in monkey eyes (applanation pneumatonometer); format: in vivo, cynomolgus monkeys; conditions: 15 μg/eye
Method: (§1) Nine male cynomolgus monkeys (body weights of animals ranged between 3.2 and 5.4 kg) without abnormalities in the anterior segment of the eye were used.
(§2) The left eye received an equal volume of the vehicle.
Intraocular pressure (IOP) measurements were conducted by means of an applanation pneumatonometer (Model 30 Classic™, Mentor O & O, Inc., USA) immediately before the administration (0-hour), and at 2, 4, 8, 12, 24, 28, and 32 hours after the administration.

monkey eyes [3] = assay: Eye irritancy scoring in monkeys (criteria based on Draize test); format: in vivo, cynomolgus monkeys; set-up: key to Eye irritancy (Score) Conjunctivae Chemosis: 0: No swelling; 1: Any swelling above normal (includes nictitating membrane); 2: Obvious swelling with partial eversion of the lids; 3: Swelling with lids about half closed; 4: Swelling with lids about half closed to completely closed; conditions: 15 μg/eye
Source text: as §1, §2
Eye irritancy was scored according to the criteria presented in Table 4 at the same time points as IOP measurements. These criteria are based on those of Draize test.

healthy human eyes = conditions: dose of 5 μg, cited from earlier work
monkey eyes [4] = conditions: dose of 3 μg; cited from earlier work
monkey eyes [5] = conditions: 50 μg per eye; cited from earlier work
eye of white rabbits = assay: Incidence of conjunctival hyperemia after single ocular administration; conditions: 50 μg eye drop, once to one eye, two hours after the administration
Method: The presence of conjunctival hyperemia was examined at two hours after the administration and the ratio of cases showing conjunctival hyperemia was evaluated by percent in each group.

CC(C)OC(=O)CCC/C=C\C[C@@H]1[C@@H](CCC(=O)CCc2ccccc2)[C@H](O)C[C@@H]1O [13,14-dihydro-15-keto-17-phenyl-18,19,20-trinor-PGF2α isopropyl ester]
effect on the cornea, conjunctiva and iris (eye of Dutch rabbits; 30 μg/eye each 4 times a day for 13 weeks): no effect
Incidence rate of ocular irritation (eye of Dutch rabbits; 4 weeks after initiation, 30 μg/eye 4 times/day): 0%
Incidence rate of ocular irritation (eye of Dutch rabbits; 8 weeks after initiation, 30 μg/eye 4 times/day): 0%
Incidence rate of ocular irritation (eye of Dutch rabbits; 13 weeks after initiation, 30 μg/eye 4 times/day): 0%
Incidence rate of ocular irritation (eye of Dutch rabbits; Pre (before initiation of administration)): 0%
Intraocular pressure lowering effect (difference in IOP between test eye and control eye) ([1]; 4 hours after administration): −1.0 mmHg
lowered the IOP by, as compared with the control eye ([1]; 4 hours after the administration): 1.0 mmHg
Intraocular pressure lowering effect (difference in IOP between test eye and control eye) ([1]; 6 hours after administration): −0.8 mmHg
lowered the IOP by, as compared with the control eye ([1]; 6 hours after the administration): 0.8 mmHg
Intraocular pressure lowering effect (difference in IOP between test eye and control eye) ([1]; 12 hours after administration): −1.1 mmHg
lowered the IOP by, as compared with the control eye ([1]; 12 hours after the administration): 1.1 mmHg
IOP (monkey eyes [2]; 0 hr (immediately before administration), right eye, Mean ± SE): 19.7 ± 0.6 mmHg
IOP reduction (monkey eyes [2]; topical): significant IOP reduction
Eye irritancy (Score) Conjunctivae Chemosis (monkey eyes [3]; 2 hr after administration): 0
Eye irritancy (Score) Conjunctivae Chemosis (monkey eyes [3]; 4 hr after administration): 0
Eye irritancy (Score) Conjunctivae Chemosis (monkey eyes [3]; 8 hr after administration): 0
Eye irritancy (Score) Conjunctivae Chemosis (monkey eyes [3]; 12 hr after administration): 0
Eye irritancy (Score) Conjunctivae Chemosis (monkey eyes [3]; 24 hr after administration): 0
Eye irritancy (Score) Conjunctivae Chemosis (monkey eyes [3]; 28 hr after administration): 0
Eye irritancy (Score) Conjunctivae Chemosis (monkey eyes [3]; 32 hr after administration): 0
Eye irritancy (Score) Conjunctivae Chemosis (monkey eyes [3]; Before administration): 0
signs or symptoms of ocular irritation (monkey eyes [3]; after topical administration): no signs or symptoms
intraocular pressure reducing effects (healthy human eyes; healthy human eyes): showed intraocular pressure reducing effects
side effect such as conjunctival hyperemia, ocular irritation and foreign body sensation (healthy human eyes; in the human): no side effect
intraocular pressure reducing effects (monkey eyes [4]): showed intraocular pressure reducing effects
intraocular pressure reducing effects (monkey eyes [5]): showed intraocular pressure reducing effects
Incidence Rate of Conjunctival Hyperemia (eye of white rabbits): 33%
